# Data from publication PMC6930524, “A Prospective Repurposing of Dantrolene as a Multitarget Agent for Alzheimer’s Disease” (Molecules, 2019).
# Tests used:
# [1] = cited from earlier work
# [2] = design: method as in PMID 11735355; details: cited from earlier work
# [3] = tested on: CAC mutants C136S, C155S, C136/155S, C-lessV; test: Transport activity of cysteine-modified CAC mutants in proteoliposomes; assay type: biochemical, rat; details: 10 μM, C-less V compared with WT
# Protocol: The reducing properties of DAN were studied on the recombinant WT CAC with the protein at different states of oxidation. Figure 8B highlights that when the carrier was incubated during the transport activity with 1 mM dithioerythritol (DTE), 10 µM DAN was able to reduce a major aliquot of oxidized protein (70% recovery of activity compared to the control). […] To identify the cysteines responsible for the activation of the CAC carrier, the proteoliposomes of the WT protein and the mutants C136S, C155S, C136/155S, and C-lessV (C23V/C58V/C89S/C136V/C155V/C283S) were incubated with 10 μM DAN. […] Further evidence of the reducing action of DAN on CAC was obtained by oxidation of the reconstituted WT protein under controlled conditions, i.e., in the presence or absence of hydrogen peroxide and its subsequent degradation by the enzyme catalase. […]
# (§1) Before starting the transport activity, proteoliposomes were passed through a Sephadex G-75 column (0.7 cm diameter; 15 cm height; Pharmacia, Milan, Italy) to remove the external substrate. […] Finally, the external substrate was removed by chromatography on Sephadex G-75 columns (0.7 cm diameter; 10 cm height) and intraliposomal radioactivity was measured by a liquid scintillation counter (Perkin Elmer, Milan, Italy).
# [4] = molecular target: T1, native CAC (mitochondrial rat liver extract) (Rattus norvegicus, UniProt P97521); test: Transport activity of native CAC from mitochondrial extract reconstituted into liposomes; assay type: biochemical; details: after 30 min of incubation; concentration range 1–200 μM; read-out: EC50 of activation of native CAC
# T1 construct: Mitochondrial rat liver extract (0.3 mg proteins in 3% Triton X-100) containing native CAC was reconstituted into liposomes; from tissue; host or cells: rat liver mitochondrial Triton X-100 extract
# T1 sequence (P97521 1-301): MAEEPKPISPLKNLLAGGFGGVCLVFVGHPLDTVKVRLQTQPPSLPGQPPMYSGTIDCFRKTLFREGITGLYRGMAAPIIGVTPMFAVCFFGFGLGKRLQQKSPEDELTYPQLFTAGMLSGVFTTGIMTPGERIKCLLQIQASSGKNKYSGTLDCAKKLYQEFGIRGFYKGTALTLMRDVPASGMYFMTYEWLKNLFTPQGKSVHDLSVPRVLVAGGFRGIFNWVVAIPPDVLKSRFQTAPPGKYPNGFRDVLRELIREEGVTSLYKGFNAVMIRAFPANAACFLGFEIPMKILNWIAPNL
# Protocol: To detect the effect of DAN on native CAC, mitochondrial extract was reconstituted into liposomes and transport activity was measured adding various concentrations of compound. In Figure 7A, the dose–response curve is shown. […] Thus, the effect of different concentrations of DAN was tested also on the purified recombinant wild-type (WT) CAC carrier reconstituted into liposomes, measuring the antiport rate of carnitine.
# Mitochondrial rat liver extract (0.3 mg proteins in 3% Triton X-100) containing native CAC was reconstituted into liposomes by removing the detergent from the mixed micelles through a hydrophobic ion-exchange column containing the resin Amberlite XAD-4, as described previously. […]
# as §1
# EC50 values were calculated using AATBioquest EC50 calculator [60]. […]
# human MAO B (hMAO B) = molecular target: T2, human MAO B (hMAO B) (Homo sapiens, UniProt P27338); test: biochemical
# T2 construct: purchased Sigma-Aldrich Europe (Milan, Italy); host or cells: baculovirus infected insect cells (microsomes)
# T2 sequence (P27338 1-520): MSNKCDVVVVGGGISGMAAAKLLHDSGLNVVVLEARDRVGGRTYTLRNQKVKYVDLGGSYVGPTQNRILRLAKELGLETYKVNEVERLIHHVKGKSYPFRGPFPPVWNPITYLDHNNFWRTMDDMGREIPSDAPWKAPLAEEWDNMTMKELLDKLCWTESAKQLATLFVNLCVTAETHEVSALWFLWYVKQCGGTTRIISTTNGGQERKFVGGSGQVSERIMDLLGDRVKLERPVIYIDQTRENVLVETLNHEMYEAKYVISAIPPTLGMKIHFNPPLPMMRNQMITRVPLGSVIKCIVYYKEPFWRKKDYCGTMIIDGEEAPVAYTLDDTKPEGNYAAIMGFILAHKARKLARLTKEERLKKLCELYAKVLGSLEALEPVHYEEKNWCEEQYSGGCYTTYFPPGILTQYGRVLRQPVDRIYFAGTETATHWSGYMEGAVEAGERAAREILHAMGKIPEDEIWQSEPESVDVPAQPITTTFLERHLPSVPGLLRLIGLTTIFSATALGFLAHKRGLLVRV
# From the text: Routine kynuramine fluorescence [29] and Ellman’s spectrophotometric [30, 31] assays were used for in vitro inhibition of human MAO B (hMAO B) and acetylcholinesterase (hAChE), respectively. Selectivity over the corresponding isoforms hMAO A and butyrylcholinesterase (hBChE) was also verified.
# An already published protocol using human recombinant monoamine oxidases A (250 U/mg) and B (59 U/mg; microsomes from baculovirus infected insect cells) [29] was used by applying a 96-well plate technique (instrument Infinite M1000 Pro, Tecan, Cernusco s.N., Italy). Briefly, compounds at a concentration ranging from 30 to 0.01 μM were preincubated 20 min at 37 °C with substrate kynuramine, in phosphate buffer 8.0 made 0.39 osmolar with KCl. After addition of enzyme and further 30 min of incubation, NaOH was added and the fluorescence read at 310/400 excitation/emission wavelength. Experiments were performed in duplicates in black, flat-bottomed polystyrene 96-well microtiter plates (Greiner Bio-One GmbH, Frickenhausen, Germany). […] Inhibition values and kinetics were calculated by means of Prism (GraphPad Prism version 5.00 for Windows, GraphPad Software, San Diego, CA, USA).
smiles,measurement,setting,value
O=C1CN(/N=C/c2ccc(-c3ccc([N+](=O)[O-])cc3)o2)C(O)=N1 [Dantrolene],concentration found in the cytosolic compartment in vivo,[1],10 µM
same,"antioxidant potency, Fe3+/Fe2+ reduction",[2],high antioxidant potency
same,increase in transport activity on cysteine mutants,[3],significantly lost
same,EC50,[4],18 ± 5 µM
same,IC50,human MAO B (hMAO B),2690 ± 440 nM
same,hMAO B inhibition mechanism,"human MAO B (hMAO B); Michaelis–Menten / Lineweaver–Burk, substrate kynuramine",comp.
same,Ki,"human MAO B (hMAO B); substrate kynuramine, mean ± SEM",960 ± 90 nM
